Source: patent US8288379B2, “Thia-triaza-cyclopentazulenes” (Boehringer Ingelheim International GmbH, priority 2009, dated 2012)

Tests used:
[1] = biological target: T1, FRAP1 (mTOR) kinase (Homo sapiens, UniProt P42345); assay: Inhibition of mTOR-induced p-4E-BP1 phosphorylation (TR-FRET mTOR Activity Kit; Invitrogen); format: biochemical; settings: 400 nM GFP-4E-BP1 substrate, ~150 ng/mL mTOR, one hour at room temperature
T1 construct: purchased Invitrogen PV4753
Text: Inhibition of mTOR-Induced p-4E-BP1 Phosphorylation (TR-FRET mTOR Activity Kit; Invitrogen)
• GFP-4E-BP1 substrate; Invitrogen order no. PV4759 • Lanthascreen Tb-anti-p4E-BP1 (pThr46) Antibody Kit; Invitrogen order no. PV4758 • FRAP1 (mTOR) kinase; Invitrogen order no. […] Preparation of Reagents: Note: Thaw and keep mTOR, the substrate, ATP, and the antibody on ice prior to making working dilutions. Working dilutions of these components can be kept at room temperature for short periods of time the day of use. 1. Add 2 ml of 5× Assay Buffer to 8 ml water to prepare 10 ml of 1× Assay Buffer. Note: The concentration of 1× Assay Buffer is 50 mM HEPES pH 7.5, 0.01% Polysorbate 20, 1 mM EGTA, and 10 mM MnCl2. 2. Prepare Antibody/EDTA Solution by first adding 2.75 n1 of Tb-anti p4E-BP1 Antibody to 2397 n1 of LanthaScreen™ TR-FRET Dilution Buffer. Then, add 100 n1 of 0.5 M EDTA. 3. Prepare 4× Substrate/Enzyme Solution by first adding 72 n1 of GFP-4E-BP1 (22 nM) to 926 n1 of 1× Assay Buffer. Then, add 1.6 n1 of mTOR (0.45 mg/mL). 4. Prepare ATP Solution by adding 3.2 n1 of 10 mM ATP to 1997 n1 of 1× Assay Buffer. Serial Dilution of Inhibitors (16 Point Curve): Note: It is recommended that inhibitors be serially diluted in DMSO, then diluted to a 4× working concentration with 1× Assay Buffer. The below procedure describes dilution of compounds in a 96-well format prior to transfer to a 384-well format for kinase assays. This procedure calls for dilution of the compounds in 2 adjacent columns of a 96-well plate, which upon transfer to a single column of a 384-well plate with an 8-channel pipette will align the samples in order of concentration. 1. Dispense 40 n1 of DMSO to two adjacent columns of a 96 well plate per compound (e.g. columns 1 and 2). 2. Add 10 n1 of inhibitor stock (10 mM) to the first well of the first column (A1) and mix. 3. Remove 10 n1 from A1 and transfer to the adjacent well in the next column (B1) and mix. 4. Remove 10 n1 from B1 and transfer to the next well in the first column (B2) and mix. 5. Repeat this dilution pattern through well H1 and leave the last well (H2) as DMSO only. 6. Remove 4 n1 of diluted compounds and add to 96 n1 of 1× Assay Buffer in a 96-well plate making 4× compound dilutions. Kinase Reaction: 1. Add 2.5 μl of 4× compound dilutions from the first column of the 96-well plate to every other well of column 1 of a 384-well plate with an 8-channel pipette. Repeat for columns 2 and 3. 2. Add 2.5 n1 of 4× compound dilutions from the second column of the 96-well plate to the empty wells of column 1 of the 384-well plate with an 8-channel pipette. Repeat for columns 2 and 3. Note: This procedure aligns the compound dilutions in order of concentration. 3. Add 2.5 n1 of 4× Enzyme/Substrate Solution to all columns 1-6. 4. Preincubate for 30 min. at RT (shaker). 5. Add 5 n1 of ATP Solution to all wells to start reactions. 6. Shake the assay plate on a plate shaker for 30 seconds. 7. Incubate the assay plate for one hour at room temperature (20-25° C.). Stop Step and Fluorescence Detection: 1. Add 10 n1 of Antibody/EDTA Solution to each well in columns 1-9. 2. Shake the assay plate on a plate shaker for 30 seconds. 3. Incubate the assay plate for one hour at room temperature (20-25° C.). 4. Measure the GFP (FRET) and terbium (reference) emission signals on a fluorescence plate reader (e.g. Perkin Elmer Envision). Data Analysis: 1. Calculate the emission ratio for each sample by dividing the GFP (FRET) signal by the terbium (reference) signal. 2. Plot the concentration of each compound versus the emission ratio. Determine the concentration of compound required to reach 50% of the maximum signal (IC50). Determination of IC50 values can be obtained by curve fitting (sigmoidal dose response, variable slope) using Prism software from GraphPad). Inhibition of Proliferation: CyQuant PC-3 Description: […]

[2] = test system: PC-3 cells; assay: Inhibition of proliferation: CyQuant PC-3; format: cell-based; settings: 72 h; PC-3 human prostate carcinoma cells, incubated with compounds for 3 days, CyQuant NF DNA dye
Protocol: • GFP-4E-BP1 substrate; Invitrogen order no. PV4759 • Lanthascreen Tb-anti-p4E-BP1 (pThr46) Antibody Kit; Invitrogen order no. PV4758 • FRAP1 (mTOR) kinase; Invitrogen order no. […] Preparation of Reagents: Note: Thaw and keep mTOR, the substrate, ATP, and the antibody on ice prior to making working dilutions. Working dilutions of these components can be kept at room temperature for short periods of time the day of use. 1. Add 2 ml of 5× Assay Buffer to 8 ml water to prepare 10 ml of 1× Assay Buffer. Note: The concentration of 1× Assay Buffer is 50 mM HEPES pH 7.5, 0.01% Polysorbate 20, 1 mM EGTA, and 10 mM MnCl2. 2. Prepare Antibody/EDTA Solution by first adding 2.75 n1 of Tb-anti p4E-BP1 Antibody to 2397 n1 of LanthaScreen™ TR-FRET Dilution Buffer. Then, add 100 n1 of 0.5 M EDTA. 3. Prepare 4× Substrate/Enzyme Solution by first adding 72 n1 of GFP-4E-BP1 (22 nM) to 926 n1 of 1× Assay Buffer. Then, add 1.6 n1 of mTOR (0.45 mg/mL). 4. Prepare ATP Solution by adding 3.2 n1 of 10 mM ATP to 1997 n1 of 1× Assay Buffer. Serial Dilution of Inhibitors (16 Point Curve): Note: It is recommended that inhibitors be serially diluted in DMSO, then diluted to a 4× working concentration with 1× Assay Buffer. The below procedure describes dilution of compounds in a 96-well format prior to transfer to a 384-well format for kinase assays. This procedure calls for dilution of the compounds in 2 adjacent columns of a 96-well plate, which upon transfer to a single column of a 384-well plate with an 8-channel pipette will align the samples in order of concentration. 1. Dispense 40 n1 of DMSO to two adjacent columns of a 96 well plate per compound (e.g. columns 1 and 2). 2. Add 10 n1 of inhibitor stock (10 mM) to the first well of the first column (A1) and mix. 3. Remove 10 n1 from A1 and transfer to the adjacent well in the next column (B1) and mix. 4. Remove 10 n1 from B1 and transfer to the next well in the first column (B2) and mix. 5. Repeat this dilution pattern through well H1 and leave the last well (H2) as DMSO only. 6. Remove 4 n1 of diluted compounds and add to 96 n1 of 1× Assay Buffer in a 96-well plate making 4× compound dilutions. Kinase Reaction: 1. Add 2.5 μl of 4× compound dilutions from the first column of the 96-well plate to every other well of column 1 of a 384-well plate with an 8-channel pipette. Repeat for columns 2 and 3. 2. Add 2.5 n1 of 4× compound dilutions from the second column of the 96-well plate to the empty wells of column 1 of the 384-well plate with an 8-channel pipette. Repeat for columns 2 and 3. Note: This procedure aligns the compound dilutions in order of concentration. 3. Add 2.5 n1 of 4× Enzyme/Substrate Solution to all columns 1-6. 4. Preincubate for 30 min. at RT (shaker). 5. Add 5 n1 of ATP Solution to all wells to start reactions. 6. Shake the assay plate on a plate shaker for 30 seconds. 7. Incubate the assay plate for one hour at room temperature (20-25° C.). Stop Step and Fluorescence Detection: 1. Add 10 n1 of Antibody/EDTA Solution to each well in columns 1-9. 2. Shake the assay plate on a plate shaker for 30 seconds. 3. Incubate the assay plate for one hour at room temperature (20-25° C.). 4. Measure the GFP (FRET) and terbium (reference) emission signals on a fluorescence plate reader (e.g. Perkin Elmer Envision). Data Analysis: 1. Calculate the emission ratio for each sample by dividing the GFP (FRET) signal by the terbium (reference) signal. 2. Plot the concentration of each compound versus the emission ratio. Determine the concentration of compound required to reach 50% of the maximum signal (IC50). Determination of IC50 values can be obtained by curve fitting (sigmoidal dose response, variable slope) using Prism software from GraphPad). Inhibition of Proliferation: CyQuant PC-3 Description:
The CyQuant NF assay is based on measurement of cellular DNA content via fluorescent dye binding. Because cellular DNA content is highly regulated, it is closely proportional to cell number. […]

T1 sequence (P42345 1360-2549 limits assumed): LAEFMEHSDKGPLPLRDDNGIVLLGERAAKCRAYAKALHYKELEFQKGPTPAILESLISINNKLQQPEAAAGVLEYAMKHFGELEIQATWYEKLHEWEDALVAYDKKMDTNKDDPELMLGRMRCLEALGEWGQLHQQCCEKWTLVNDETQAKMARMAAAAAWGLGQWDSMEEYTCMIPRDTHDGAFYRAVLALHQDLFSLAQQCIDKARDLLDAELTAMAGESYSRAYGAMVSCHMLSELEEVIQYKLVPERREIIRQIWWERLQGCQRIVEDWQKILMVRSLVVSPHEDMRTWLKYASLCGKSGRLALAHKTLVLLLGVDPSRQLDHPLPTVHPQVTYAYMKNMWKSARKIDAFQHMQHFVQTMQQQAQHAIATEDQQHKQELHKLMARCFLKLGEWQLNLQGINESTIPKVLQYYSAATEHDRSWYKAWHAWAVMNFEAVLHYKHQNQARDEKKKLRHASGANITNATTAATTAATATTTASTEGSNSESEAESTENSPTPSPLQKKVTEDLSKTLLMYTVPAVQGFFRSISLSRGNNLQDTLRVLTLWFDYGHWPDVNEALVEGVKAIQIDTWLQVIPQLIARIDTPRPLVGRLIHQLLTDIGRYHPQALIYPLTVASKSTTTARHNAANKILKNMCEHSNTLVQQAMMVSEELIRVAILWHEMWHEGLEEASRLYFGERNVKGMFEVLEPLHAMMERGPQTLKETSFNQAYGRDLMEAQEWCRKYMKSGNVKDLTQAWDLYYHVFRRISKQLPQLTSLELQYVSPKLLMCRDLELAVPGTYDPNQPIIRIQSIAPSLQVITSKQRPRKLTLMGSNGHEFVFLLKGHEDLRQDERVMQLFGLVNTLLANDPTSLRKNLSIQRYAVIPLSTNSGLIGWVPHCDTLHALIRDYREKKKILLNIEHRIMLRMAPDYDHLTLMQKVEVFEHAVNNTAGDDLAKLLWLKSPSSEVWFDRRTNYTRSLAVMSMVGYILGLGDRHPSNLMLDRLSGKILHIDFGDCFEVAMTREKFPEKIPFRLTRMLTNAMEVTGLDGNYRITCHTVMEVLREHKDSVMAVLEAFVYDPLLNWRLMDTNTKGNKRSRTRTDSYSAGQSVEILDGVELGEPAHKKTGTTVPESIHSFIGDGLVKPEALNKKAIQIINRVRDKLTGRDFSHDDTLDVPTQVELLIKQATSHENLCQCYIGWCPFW

Compound | IC50 [1] | EC50 [2]
CCNc1ccc(-c2nn(C3CCCOC3)c3c2CCCc2nc(NC(C)=O)sc2-3)cn1 (centres unmarked) [Example B-60] | 109 nM | 170 nM
CCNc1ccc(-c2nn(-c3ccccc3C)c3c2CCCc2nc(NC(=O)CCc4nccn4C)sc2-3)cn1 [Example B-72] | 84 nM | 298 nM
CCCn1nc(-c2ccc(N)nc2)c2c1-c1sc(NC(C)=O)nc1CCC2 [Example B-131, N-[3-(6-Amino-pyridin-3-yl)-1-propyl-1,4,5,6-tetrahydro-9-thia-1,2,7-triaza-cyclopenta[e]azulen-8-yl]-acetamide] | 17 nM | 57 nM
CNC(=O)Nc1nc2c(s1)-c1c(c(-c3ccc(N)nc3)nn1-c1ccccc1C)CCC2 [Example B-148, 1-[3-(6-Amino-pyridin-3-yl)-1-o-tolyl-1,4,5,6-tetrahydro-9-thia-1,2,7-triaza-cyclopenta[e]azulen-8-yl]-3-methyl-urea] | 15 nM | 104 nM
NCC(=O)Nc1nc2c(s1)-c1c(c(-c3ccc(N)nc3)nn1-c1ccccc1F)CCC2 [Example B-101] | 22 nM | 96 nM
CNc1ccc(-c2nn(-c3ccccc3C)c3c2CCCc2nc(NC(=O)N(C)C)sc2-3)cn1 [Example B-46] | 1200 nM | 447 nM
CNc1ccc(-c2nn(-c3cccnc3C)c3c2CCCc2nc(NC(C)=O)sc2-3)cn1 [Example B-139, N-[3-(6-Methylamino-pyridin-3-yl)-1-(2-methyl-pyridin-3-yl)-1,4,5,6-tetrahydro-9-thia-1,2,7-triaza-cyclopent[e]azulen-8-yl]acetamide] | 21 nM | 71 nM
COCCC(=O)Nc1nc2c(s1)-c1c(c(-c3ccc(N)nc3)nn1-c1ccccc1F)CCC2 [Example E-15, N-[3-(6-Amino-pyridin-3-yl)-1-(2-fluoro-phenyl)-1,4,5,6-tetrahydro-9-thia-1,2,7-triaza-cyclopenta[e]azulen-8-yl]-3-methoxy-propionamide] | 47 nM | 138 nM
CNc1ccc(-c2nn(-c3ccccc3C)c3c2CCCc2nc(NC(=O)CCC(=O)N(C)C)sc2-3)cn1 [Example B-108] | 102 nM | 106 nM
CC(=O)Nc1nc2c(s1)-c1c(c(-c3ccc(N)nc3)nn1-c1ccccc1Cl)CCC2 [Example B-64, N-[3-(6-Amino-pyridin-3-yl)-1-(2-chloro-phenyl)-1,4,5,6-tetrahydro-9-thia-1,2,7-triaza-cyclopenta[e]azulen-8-yl]-acetamide] | 9 nM | 82 nM
CNc1ccc(-c2nn(-c3ccccc3C)c3c2CCCc2nc(NC(=O)CCOC)sc2-3)cn1 [Example B-106, 3-Methoxy-N-[3-(6-methylamino-pyridin-3-yl)-1-o-tolyl-1,4,5,6-tetrahydro-9-thia-1,2,7-triaza-cyclopenta[e]azulen-8-yl]-propionamide] | 69 nM | 178 nM
CCCn1nc(-c2ccc(C)nc2)c2c1-c1sc(NC(C)=O)nc1CCC2 [Example B-92] | 152 nM | 221 nM
COCCC(=O)Nc1nc2c(s1)-c1c(c(-c3ccc(N)nc3)nn1CC(C)C)CCC2 [Example B-134] | 60 nM | 143 nM
C=CCn1nc(-c2ccc(NC)nc2)c2c1-c1sc(NC(=O)N(C)C)nc1CCC2 [Example B-47] | 734 nM | 703 nM
CC(=O)Nc1nc2c(s1)-c1c(c(-c3ccc(N)nc3)nn1-c1cccnc1C)CCC2 [Example B-138, N-[3-(6-Amino-pyridin-3-yl)-1-(2-methyl-pyridin-3-yl)-1,4,5,6-tetrahydro-9-thia-1,2,7-triaza-cyclopent[e]azulen-8-yl]acetamide] | 38 nM | 236 nM
CC(=O)Nc1nc2c(s1)-c1c(c(-c3c[nH]cn3)nn1-c1ccccc1F)CCC2 [Example B-111, N-[1-(2-Fluoro-phenyl)-3-(1H-imidazol-4-yl)-1,4,5,6-tetrahydro-9-thia-1,2,7-triaza-cyclopenta[e]azulen-8-yl]-acetamide] | 4 nM | 38 nM
